According to paper PMC9501899 (Journal of the American Chemical Society, 2022):
Like-named read-outs stand apart in the source and are kept apart here.

Tests used:
mito-QC MEFs = test: Mitophagy in mito-QC MEFs; assay type: cell-based, mouse; details: 24 h treatment
Excerpt: Mitochondrial dysfunction is one of the pathophysiological hallmarks of PD[73] and can be rescued by mitophagy, a quality control mechanism whereby damaged or unnecessary mitochondria are delivered to lysosomes for degradation through membrane trafficking.[8] It has been shown that increasing mitophagy with inducer agents has the potential as a PD therapy.[74] Previous studies have shown that the LRRK2 kinase activity impairs basal mitophagy and that LRRK2 knockout or pharmacological inhibition of LRRK2 with kinase inhibitors was able to rescue the mitophagy level.[8]
Data are represented as mean ± SEM from three to five independent experiments.
Immortalized mito-QC MEFs[8],[93] were maintained in DMEM (Gibco, 11960–044) supplemented with 10% FBS, 2 mM L-glutamine (Gibco, 2503-081), 1% Na-pyruvate (Gibco, 11360-070), 1% nonessential amino acids (Gibco, 11140–035), and 1% antibiotics (penicillin/streptomycin, 100 U/mL penicillin and 100 μg/mL streptomycin; Gibco) at 37 °C under a humidified 5% CO2 atmosphere. […] Quantification of red-only dots was semiautomatized using the mito-QC counter plugin on FIJI, as previously described,[8],[94] using the following parameters: radius for smoothing images = 2, ratio threshold = 1.5, and red channel threshold = mean + 1 SD. […]

R1441C LRRK2 = molecular target: T1, R1441C LRRK2 (Mus musculus, UniProt Q5S006, R1441C); test: LRRK2 degradation in R1441C LRRK2 MEFs; assay type: cell-based; details: 4 h
T1 construct: endogenous in cells; host or cells: R1441C LRRK2 MEFs
T1 sequence (Q5S006 whole entry R1441C): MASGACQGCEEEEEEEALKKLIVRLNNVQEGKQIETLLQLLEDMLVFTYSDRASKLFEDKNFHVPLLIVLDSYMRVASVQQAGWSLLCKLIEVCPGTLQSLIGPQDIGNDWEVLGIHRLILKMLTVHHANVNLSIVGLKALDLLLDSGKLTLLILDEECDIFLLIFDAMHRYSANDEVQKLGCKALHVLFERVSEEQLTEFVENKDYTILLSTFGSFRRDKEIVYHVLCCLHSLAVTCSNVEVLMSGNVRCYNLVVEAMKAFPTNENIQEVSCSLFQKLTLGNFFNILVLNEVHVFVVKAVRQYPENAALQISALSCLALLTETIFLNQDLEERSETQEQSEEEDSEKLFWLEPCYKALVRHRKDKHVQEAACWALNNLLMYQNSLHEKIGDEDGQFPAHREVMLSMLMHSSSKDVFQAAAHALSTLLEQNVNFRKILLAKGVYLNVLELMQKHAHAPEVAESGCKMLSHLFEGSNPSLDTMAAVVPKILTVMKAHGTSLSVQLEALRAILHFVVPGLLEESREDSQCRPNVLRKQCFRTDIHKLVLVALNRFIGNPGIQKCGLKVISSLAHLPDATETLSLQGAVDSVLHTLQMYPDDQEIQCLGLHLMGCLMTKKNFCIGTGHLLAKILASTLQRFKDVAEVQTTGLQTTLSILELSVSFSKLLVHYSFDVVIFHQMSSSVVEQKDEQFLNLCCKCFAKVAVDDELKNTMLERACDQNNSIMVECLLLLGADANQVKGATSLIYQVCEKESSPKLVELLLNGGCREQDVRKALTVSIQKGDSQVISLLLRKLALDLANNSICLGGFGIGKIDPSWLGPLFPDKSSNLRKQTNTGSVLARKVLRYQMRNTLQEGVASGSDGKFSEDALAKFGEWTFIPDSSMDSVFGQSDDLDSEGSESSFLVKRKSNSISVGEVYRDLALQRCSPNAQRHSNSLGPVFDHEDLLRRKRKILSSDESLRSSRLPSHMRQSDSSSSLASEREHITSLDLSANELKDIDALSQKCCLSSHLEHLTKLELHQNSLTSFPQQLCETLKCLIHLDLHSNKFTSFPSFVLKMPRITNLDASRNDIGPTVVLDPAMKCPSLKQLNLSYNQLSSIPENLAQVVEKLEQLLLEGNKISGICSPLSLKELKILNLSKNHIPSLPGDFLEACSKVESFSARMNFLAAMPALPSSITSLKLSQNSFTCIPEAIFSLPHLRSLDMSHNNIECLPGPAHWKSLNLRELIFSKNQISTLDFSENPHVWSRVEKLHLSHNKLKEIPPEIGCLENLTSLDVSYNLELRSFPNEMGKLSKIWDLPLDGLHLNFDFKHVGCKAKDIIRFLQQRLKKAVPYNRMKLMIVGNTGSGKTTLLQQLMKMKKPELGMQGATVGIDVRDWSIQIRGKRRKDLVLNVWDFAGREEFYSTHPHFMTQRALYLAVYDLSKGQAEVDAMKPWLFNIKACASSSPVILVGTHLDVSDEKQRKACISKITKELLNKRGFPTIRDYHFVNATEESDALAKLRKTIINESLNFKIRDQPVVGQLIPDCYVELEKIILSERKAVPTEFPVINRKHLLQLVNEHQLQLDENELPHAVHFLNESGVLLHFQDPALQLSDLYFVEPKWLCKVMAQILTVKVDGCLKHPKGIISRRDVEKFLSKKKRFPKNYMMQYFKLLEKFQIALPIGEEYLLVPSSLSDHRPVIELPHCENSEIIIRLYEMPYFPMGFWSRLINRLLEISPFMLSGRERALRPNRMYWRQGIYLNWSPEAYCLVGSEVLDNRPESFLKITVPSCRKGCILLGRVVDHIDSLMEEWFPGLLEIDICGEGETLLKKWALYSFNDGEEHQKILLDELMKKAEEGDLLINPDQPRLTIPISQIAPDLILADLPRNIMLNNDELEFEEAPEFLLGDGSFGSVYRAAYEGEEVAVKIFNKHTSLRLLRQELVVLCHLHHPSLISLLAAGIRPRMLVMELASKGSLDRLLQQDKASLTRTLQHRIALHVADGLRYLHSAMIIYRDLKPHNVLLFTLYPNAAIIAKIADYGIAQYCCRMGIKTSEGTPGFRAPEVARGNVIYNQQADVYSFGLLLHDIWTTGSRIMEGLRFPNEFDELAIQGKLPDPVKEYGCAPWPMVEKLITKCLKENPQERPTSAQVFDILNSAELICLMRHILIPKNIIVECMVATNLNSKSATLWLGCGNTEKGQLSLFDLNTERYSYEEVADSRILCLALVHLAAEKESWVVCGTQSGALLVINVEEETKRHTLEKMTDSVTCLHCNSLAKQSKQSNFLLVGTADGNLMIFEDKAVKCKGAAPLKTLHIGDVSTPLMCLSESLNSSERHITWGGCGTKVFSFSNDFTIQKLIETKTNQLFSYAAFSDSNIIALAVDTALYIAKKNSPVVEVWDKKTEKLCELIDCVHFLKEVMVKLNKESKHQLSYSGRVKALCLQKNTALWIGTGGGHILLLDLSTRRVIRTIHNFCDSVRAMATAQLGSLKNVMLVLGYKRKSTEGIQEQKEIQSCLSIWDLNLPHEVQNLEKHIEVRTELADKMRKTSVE

pRab10 = test: cells; assay type: cell-based, human; details: for EC50: Homo sapiens, PBMC, PBMCs, read-out: EC50s (pRab10)
Excerpt: The relative LRRK2 protein and pRab10 levels were obtained by quantifying the ratios of total LRRK2/GAPDH or Rab10-pThr73/total Rab10, respectively, and the ratios were normalized to the DMSO-treated samples. The relative LRRK2 and pRab10 protein levels were plotted against the compound concentration and fitted against “nonlinear regression, one site-fit log IC50” in GraphPad to obtain the DC50 and EC50 values. Data points are presented as mean ± standard error of the mean (SEM) from three biological independent replicates. […] The relative LRRK2 protein and pRab10 levels were obtained by quantifying the ratios of total LRRK2/ GAPDH or Rab10-pThr73/total Rab10, respectively, and the ratios were normalized to the DMSO-treated samples. The relative LRRK2 and pRab10 protein levels were plotted against the treatment time and were fitted against “nonlinear regression, one-phase decay” in GraphPad to obtain the half-life (T1/2) values. Data points are presented as mean ± SEM from three biological independent replicates. […] The relative LRRK2 levels were obtained by quantifying the ratios of total LRRK2/tubulin and normalized to the DMSO-treated samples. The relative LRRK2 levels were plotted against the compound concentration and fitted against “nonlinear regression, one site-fit log IC50” in GraphPad to obtain the DC50 values.
PBMC cells were separated from human blood from healthy volunteer donors following the existing protocol[82] and pelleted by centrifugation at 1000g for 2 min. The supernatant was discarded, and the PBMC pellet was resuspended in PBS containing 2% FBS for washing. The suspension was centrifuged at 1000g for 2 min again, and the PBMC pellet was resuspended in Roswell Park Memorial Institute (RPMI)-1640 (Gibco) media supplemented with 10% FBS. The cells were then seeded into six-well plates and treated with testing compounds at indicated concentrations and time periods. After treatment, the cells were collected into a 2 mL Eppendorf tube and centrifuged at 500g for 2 min to pellet the cells, the supernatant was discarded, and the pellet was resuspended in 1 mL PBS and centrifuged at 500g for 2 min again. The PBMC pellet was lysed with 60 μL of lysis buffer containing 50 mM tris–HCl, pH 7.5, 1% (v/v) Triton X-100, 1 mM ethylene glycol-bis(β-aminoethyl ether)-N,N,N′,N′-tetraacetic acid (EGTA), 1 mM sodium orthovanadate, 50 mM NaF, 0.1% (v/v) 2-mercaptoethanol, 10 mM 2-glycerophosphate, 5 mM sodium pyrophosphate, 0.1 μg/mL microcystin-LR (Enzo Life Sciences), 270 mM sucrose, and 0.5 mM diisopropyl fluorophosphate (DIFP) (Sigma-Aldrich, Cat# D0879) in addition to a complete EDTA-free protease inhibitor cocktail (Sigma-Aldrich Cat # 11836170001). DIFP is highly toxic and must be prepared in a fume hood to a stock solution of 0.5 M in isopropanol. The lysed cells were then centrifuged at 1500g for 15 min at 0 °C. The supernatants were collected for analysis by quantitative immunoblotting. For long-term storage, the supernatant was flash-frozen and stored at −80 °C. Protein concentrations of cell lysates were determined using the Pierce BCA Protein Assay Kit (Thermo Fisher).
Cell lysates containing a quarter of a volume of 4× NuPAGE LDS sample buffer (NP0007) supplemented with 5% β-mercaptoethanol were heated at 95 °C for 5 min. […]

SMILES | mitophagy level (in words) (mito-QC MEFs) | DC50s (LRRK2) (R1441C LRRK2) | EC50 (pRab10; 4 h) [nM] | EC50 (pRab10; 24 h) [nM] | pRab10 T1/2 (pRab10; human, pbmc, 300 nM) [h] | Dmax (LRRK2) (R1441C LRRK2)
CNc1nc(Nc2ccc(C(=O)N3CCN(C[C@H]4CC[C@H](CSC(C)(C)[C@H](NC(=O)C5(F)CC5)C(=O)N5C[C@H](O)CC5C(=O)NCc5ccc(-c6scnc6C)cc5)CC4)CC3)cc2OC)ncc1Cl (stereo partly drawn) [XL01126, (2S,4R)-1-((R)-3-((((1R,4R)-4-((4-(4-((5-Chloro-4-(methylamino)pyrimidin-2-yl)amino)-3-methoxybenzoyl)piperazin-1-yl)methyl)cyclohexyl)methyl)thio)-2-(1-fluorocyclopropane-1-carboxamido)-3-methylbutanoyl)-4-hydroxy-N-(4-(4-methylthiazol-5-yl)benzyl)pyrrolidine-2-carboxamide] | induced the mitophagy level dose-dependently | 15 nM (4 h) | 69 | 20 | 0.38 | –
CNc1nc(Nc2ccc(C(=O)N3CCN(C[C@H]4CC[C@H](CSC(C)(C)[C@H](NC(=O)C5(F)CC5)C(=O)N5C[C@@H](O)C[C@H]5C(=O)NCc5ccc(-c6scnc6C)cc5)CC4)CC3)cc2OC)ncc1Cl [cis-XL01126, (2S,4S)-1-((R)-3-((((1R,4R)-4-((4-(4-((5-Chloro-4-(methylamino)pyrimidin-2-yl)amino)-3-methoxybenzoyl)piperazin-1-yl)methyl)cyclohexyl)methyl)thio)-2-(1-fluorocyclopropane-1-carboxamido)-3-methylbutanoyl)-4-hydroxy-N-(4-(4-methylthiazol-5-yl)benzyl)pyrrolidine-2-carboxamide] | induced the mitophagy level dose-dependently | NDO | ~3000 | 705 | – | NDO
